Reference: US20250188068A1, “AMIDO CYCLOPROPYL DERIVATIVES AS LPA RECEPTOR INHIBITORS” (CHIESI FARMACEUTICI S.P.A., priority 2022, published 2025)

Molecular target: T1, human recombinant LPA1 expressed in CHO cells (Homo sapiens, UniProt Q92633)
T1 construct: expressed in transfected cells; host or cells: CHO cells (CHO-hLPA1 cell line)
Assay: FLIPR calcium mobilization assay, LPA1 antagonism in CHO-hLPA1 cells
Type: cell-based
Conditions: inhibition of LPA EC80 Ca2+ response, 30 min pre-incubation, range of activity
Description: The effectiveness of compounds of the present invention as LPA1 antagonist can be determined at the human recombinant LPA1 expressed in CHO cells, using a FLIPR assay in 384 well format.
CHO-hLPA1 cell lines are cultured in a humidified incubator at 5% CO2 in DMEM/F-12 (1:1) MIXTURE with 2 mM Glutamax, supplemented with 10% of Foetal Bovine Serum, 1 mM Sodium Pyruvate, 11 mM Hepes and 1× Penicillin/Streptomycin. CHO hLPA1 cells are seeded into black walled clear-bottom 384-well plates (#781091, Greiner Bio-One GmbH) at a density of 7,500 cells per well in 50 μl culture media and grown overnight in a 37° C. humidified CO2-incubator. Serial dilutions (1:3 or 1:4, 11 points CRC) of compounds are performed in 100% DMSO at 200× the final concentration. The compounds are diluted 1:50 prior to the experiment with Assay Buffer (20 mM HEPES, 145 mM NaCl, 5 mM KCl, 5.5 mM glucose, 1 mM MgCl2 and 2 mM CaCl2), pH 7.4 containing 0.01% Pluronic F-127) to obtain a solution corresponding to […] the final concentration in the assay (4×, 2% DMSO). The final concentration of DMSO in the assay will be 0.5% in each well. Medium is removed by aspiration and cells are then incubated with 30 μl of a loading solution containing 5 μM of the cytoplasmic Ca2+ indicator Cal-520 AM in Assay Buffer containing 2.5 mM probenecid for 30 min at 37° C. incubator (cell loading). The loaded cell plates are transferred into the FLIPR instrument and calcium responses are monitored during the on-line addition protocols. For testing of compounds, after the cell loading, 10 μl/well of 4× antagonists' solution was added onto the cells. After 30 min pre-incubation (at 37° C.), 10 μl/well of 5× concentrated LPA EC80 was added and Ca2+ mobilization responses was followed during the on-line addition protocol. Intracellular peak fluorescence values subtracted by baseline fluorescence are exported and analysed to determine IC50 values, respectively. The calcium response is expressed as percentage of the maximal inhibition of the EC80 agonist response.
The raw data obtained in unstimulated controls (DMSO, no LPA) are set as “100% inhibition”, while the raw data obtained in negative controls, i.e. in the absence of compounds and stimulating with LPA EC80, are set as “0% inhibition”.
The raw data (peak height expressed as relative fluorescence units) are normalized and transformed into “percent of inhibition”. Curve fitting and pIC50 (−Log IC50) estimations are carried out using a four-parameter logistic model using XLfit Software.

T1 sequence (Q92633 whole entry): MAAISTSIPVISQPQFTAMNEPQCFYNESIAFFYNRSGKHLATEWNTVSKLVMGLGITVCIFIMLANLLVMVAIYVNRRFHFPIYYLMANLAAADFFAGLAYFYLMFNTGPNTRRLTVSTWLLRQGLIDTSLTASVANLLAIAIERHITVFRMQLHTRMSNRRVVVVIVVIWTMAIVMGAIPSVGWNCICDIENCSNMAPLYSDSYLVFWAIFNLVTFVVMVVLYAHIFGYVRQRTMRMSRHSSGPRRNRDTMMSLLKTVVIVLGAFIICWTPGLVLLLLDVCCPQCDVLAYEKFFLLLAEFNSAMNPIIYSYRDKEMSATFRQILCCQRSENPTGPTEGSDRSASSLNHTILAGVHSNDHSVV

Row | SMILES | IC50 [nM]
1 | Cc1nc(-c2onc(C)c2NC(=O)O[C@H](C)c2ccccc2Cl)ccc1NC(=O)C1C(c2noc(=O)[nH]2)C1(F)F (stereo partly drawn) [Compound 42, (R)-1-(2-chlorophenyl)ethyl (5-(5-(2,2-difluoro-3-(5-oxo-4,5-dihydro-1,2,4-oxadiazol-3-yl)cyclopropane-1-carboxamido)-6-methylpyridin-2-yl)-3-methylisoxazol-4-yl)carbamate] | < 50
2 | Cc1nc(-c2onc(C)c2CNc2nccc(C3CCCCC3)n2)ccc1NC(=O)C1C(C(=O)O)C1(F)F (single isomer, unassigned; enantiomer 1) [Compound 19, Single Enantiomer 1 of Trans-3-((6-(4-(((4-cyclohexylpyrimidin-2-yl)amino)methyl)-3-methylisoxazol-5-yl)-2-methylpyridin-3-yl)carbamoyl)-2,2-difluorocyclopropane-1-carboxylic acid] | < 50
3 | Cc1nc(-c2onc(C)c2CNc2nccc(-c3ccco3)n2)ccc1NC(=O)[C@@H]1[C@@H](C(=O)O)C1(F)F [Compound 22, (1S,3S)-2,2-difluoro-3-((6-(4-(((4-(furan-2-yl)pyrimidin-2-yl)amino)methyl)-3-methylisoxazol-5-yl)-2-methylpyridin-3-yl)carbamoyl)cyclopropane-1-carboxylic acid] | 100 to 200
4 | Cc1nc(-c2onc(C)c2CNc2nccc(C3CCCCC3)n2)ccc1NC(=O)[C@@H]1[C@@H](C(=O)O)C1(F)F (racemic) [Compound 18, 3-((6-(4-(((4-cyclohexylpyrimidin-2-yl)amino)methyl)-3-methylisoxazol-5-yl)-2-methylpyridin-3-yl)carbamoyl)-2,2-difluorocyclopropane-1-carboxylic acid, mix of Trans diastereomers] | < 50
5 | Cc1nc(-c2onc(C)c2CNc2nccc(-c3cnccn3)n2)ccc1NC(=O)[C@@H]1[C@@H](C(=O)O)C1(F)F [Compound 23, (1S,3S)-2,2-difluoro-3-((2-methyl-6-(3-methyl-4-(((4-(pyrazin-2-yl)pyrimidin-2-yl)amino)methyl)isoxazol-5-yl)pyridin-3-yl)carbamoyl)cyclopropane-1-carboxylic acid] | < 50

The next lines start with the values.

Row | IC50 [nM] | SMILES
6 | 100 to 200 | C[C@@H](OC(=O)Nc1ncoc1-c1ccc(NC(=O)[C@@H]2[C@@H](C(=O)O)C2(F)F)cc1)c1ccccc1Cl [Compound 40, methyl (1S,3S)-3-((4-(4-((((R)-1-(2-chlorophenyl)ethoxy)carbonyl)amino)oxazol-5-yl)phenyl)carbamoyl)-2,2-difluorocyclopropane-1-carboxlic acid]
7 | 100 to 200 | C[C@@H](OC(=O)Nc1cn(C)nc1-c1ccc(NC(=O)[C@@H]2[C@@H](C(=O)O)C2(F)F)cc1)c1ccccc1Cl [Compound 38, (1S,3S)-3-((4-(4-((((R)-1-(2-chlorophenyl)ethoxy)carbonyl)amino)-1-methyl-1H-pyrazol-3-yl)phenyl)carbamoyl)-2,2-difluorocyclopropane-1-carboxylic acid]

System: Caco-2 cells monolayers (human colon carcinoma cell line)
Assay: not given
Conditions: Caco-2, 60 min, 10 μM, pH 7.4

Row | SMILES | Passive Permeability [×10⁻⁶ cm/s]
8 | Cc1nc(-c2onc(C)c2NC(=O)O[C@H](C)c2ccccc2Cl)ccc1NC(=O)C1C(c2noc(=O)[nH]2)C1(F)F (stereo partly drawn) [Compound 42, (R)-1-(2-chlorophenyl)ethyl (5-(5-(2,2-difluoro-3-(5-oxo-4,5-dihydro-1,2,4-oxadiazol-3-yl)cyclopropane-1-carboxamido)-6-methylpyridin-2-yl)-3-methylisoxazol-4-yl)carbamate] | ≤0.5
